Results from article PMC2654083 (The Journal of General Physiology, 2009).

Biological target: KirBac1.1 (Burkholderia pseudomallei, UniProt P83698)
Test: biochemical

Sequence of KirBac1.1 (P83698 1-333): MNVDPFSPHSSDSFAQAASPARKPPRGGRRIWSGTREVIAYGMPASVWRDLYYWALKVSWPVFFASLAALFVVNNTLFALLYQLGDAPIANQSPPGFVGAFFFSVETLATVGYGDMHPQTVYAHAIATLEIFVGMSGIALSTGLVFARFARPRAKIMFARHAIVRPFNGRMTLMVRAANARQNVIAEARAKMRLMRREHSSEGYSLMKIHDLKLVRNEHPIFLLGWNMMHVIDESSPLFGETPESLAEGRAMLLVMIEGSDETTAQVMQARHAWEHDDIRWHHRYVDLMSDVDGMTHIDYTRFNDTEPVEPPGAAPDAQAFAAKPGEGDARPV

NCCCNCCCCNCCCN [spermine]
IC50: 800 µM
